These results are taken from patent US10065963B2 (Incyte Corporation, priority 2015, dated 2018).

The IC50 is the concentration at which inhibition is half-maximal.

The target of experiment [1] is PI3Kδ (p110δ/p85α) Recombinant Human Protein (Homo sapiens (Human), UniProt O00329). The experiment is described as follows: PI3Kδ scintillation proximity assay. Format: biochemical. (In general: SPA uses beads or plates that emit light when radiolabelled molecules are held near them.)
Experiment [2] addresses PI3Kγ (p110γ) Recombinant Human Protein (Homo sapiens (Human), UniProt P48736). Briefly: PI3K-γ scintillation proximity assay. Format: biochemical. Particulars: 2 μM ATP, 20 μM PIP2.

Structures can show the parent of a compound that is named as a salt.

Sequence of PI3Kδ (p110δ/p85α) Recombinant Human Protein (O00329 whole entry): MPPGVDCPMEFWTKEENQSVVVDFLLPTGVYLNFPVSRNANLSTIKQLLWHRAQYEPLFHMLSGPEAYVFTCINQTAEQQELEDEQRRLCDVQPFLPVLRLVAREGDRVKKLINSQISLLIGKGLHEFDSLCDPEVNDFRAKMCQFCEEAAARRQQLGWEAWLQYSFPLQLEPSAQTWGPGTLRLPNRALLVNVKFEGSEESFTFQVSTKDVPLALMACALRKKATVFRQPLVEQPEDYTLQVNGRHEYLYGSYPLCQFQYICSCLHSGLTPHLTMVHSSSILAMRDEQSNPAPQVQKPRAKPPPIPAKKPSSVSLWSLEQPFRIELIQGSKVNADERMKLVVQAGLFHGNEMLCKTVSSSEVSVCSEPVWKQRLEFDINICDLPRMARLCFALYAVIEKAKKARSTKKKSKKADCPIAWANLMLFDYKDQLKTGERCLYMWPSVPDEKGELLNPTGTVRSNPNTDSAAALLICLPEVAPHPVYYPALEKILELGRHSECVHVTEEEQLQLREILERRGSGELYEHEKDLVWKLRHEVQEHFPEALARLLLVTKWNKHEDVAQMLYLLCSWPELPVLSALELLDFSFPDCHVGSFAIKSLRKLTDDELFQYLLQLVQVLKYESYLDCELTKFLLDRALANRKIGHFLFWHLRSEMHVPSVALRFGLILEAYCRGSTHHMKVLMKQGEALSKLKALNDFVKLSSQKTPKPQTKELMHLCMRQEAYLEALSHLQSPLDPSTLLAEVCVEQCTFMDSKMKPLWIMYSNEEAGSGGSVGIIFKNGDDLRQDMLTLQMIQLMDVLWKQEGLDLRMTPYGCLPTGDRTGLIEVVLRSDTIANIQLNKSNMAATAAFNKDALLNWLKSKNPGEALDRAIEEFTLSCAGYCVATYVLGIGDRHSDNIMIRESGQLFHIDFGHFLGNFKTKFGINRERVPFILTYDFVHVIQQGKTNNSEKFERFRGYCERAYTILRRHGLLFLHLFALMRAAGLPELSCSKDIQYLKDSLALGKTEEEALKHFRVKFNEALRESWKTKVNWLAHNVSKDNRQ
Sequence of PI3Kδ (p110δ/p85α) Recombinant Human Protein (P27986 whole entry partner): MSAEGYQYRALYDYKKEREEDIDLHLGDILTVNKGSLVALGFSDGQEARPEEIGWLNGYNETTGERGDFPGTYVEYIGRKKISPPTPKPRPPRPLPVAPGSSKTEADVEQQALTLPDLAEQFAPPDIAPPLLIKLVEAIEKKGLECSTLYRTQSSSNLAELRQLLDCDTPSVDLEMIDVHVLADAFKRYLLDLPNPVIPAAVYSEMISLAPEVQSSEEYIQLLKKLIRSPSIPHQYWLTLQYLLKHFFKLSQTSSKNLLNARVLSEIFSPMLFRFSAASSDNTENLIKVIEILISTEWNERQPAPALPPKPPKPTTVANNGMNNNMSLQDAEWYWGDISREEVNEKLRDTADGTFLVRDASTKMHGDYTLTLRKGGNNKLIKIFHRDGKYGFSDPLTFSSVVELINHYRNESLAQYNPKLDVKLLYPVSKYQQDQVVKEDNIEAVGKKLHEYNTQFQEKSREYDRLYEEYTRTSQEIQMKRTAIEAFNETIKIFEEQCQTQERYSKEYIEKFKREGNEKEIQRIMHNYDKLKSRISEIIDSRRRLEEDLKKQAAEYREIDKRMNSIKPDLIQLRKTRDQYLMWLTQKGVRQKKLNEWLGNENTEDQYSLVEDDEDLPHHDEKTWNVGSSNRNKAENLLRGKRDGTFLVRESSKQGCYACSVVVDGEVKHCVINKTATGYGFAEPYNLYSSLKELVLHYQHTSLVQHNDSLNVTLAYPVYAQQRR
Sequence of PI3Kγ (p110γ) Recombinant Human Protein (P48736 whole entry): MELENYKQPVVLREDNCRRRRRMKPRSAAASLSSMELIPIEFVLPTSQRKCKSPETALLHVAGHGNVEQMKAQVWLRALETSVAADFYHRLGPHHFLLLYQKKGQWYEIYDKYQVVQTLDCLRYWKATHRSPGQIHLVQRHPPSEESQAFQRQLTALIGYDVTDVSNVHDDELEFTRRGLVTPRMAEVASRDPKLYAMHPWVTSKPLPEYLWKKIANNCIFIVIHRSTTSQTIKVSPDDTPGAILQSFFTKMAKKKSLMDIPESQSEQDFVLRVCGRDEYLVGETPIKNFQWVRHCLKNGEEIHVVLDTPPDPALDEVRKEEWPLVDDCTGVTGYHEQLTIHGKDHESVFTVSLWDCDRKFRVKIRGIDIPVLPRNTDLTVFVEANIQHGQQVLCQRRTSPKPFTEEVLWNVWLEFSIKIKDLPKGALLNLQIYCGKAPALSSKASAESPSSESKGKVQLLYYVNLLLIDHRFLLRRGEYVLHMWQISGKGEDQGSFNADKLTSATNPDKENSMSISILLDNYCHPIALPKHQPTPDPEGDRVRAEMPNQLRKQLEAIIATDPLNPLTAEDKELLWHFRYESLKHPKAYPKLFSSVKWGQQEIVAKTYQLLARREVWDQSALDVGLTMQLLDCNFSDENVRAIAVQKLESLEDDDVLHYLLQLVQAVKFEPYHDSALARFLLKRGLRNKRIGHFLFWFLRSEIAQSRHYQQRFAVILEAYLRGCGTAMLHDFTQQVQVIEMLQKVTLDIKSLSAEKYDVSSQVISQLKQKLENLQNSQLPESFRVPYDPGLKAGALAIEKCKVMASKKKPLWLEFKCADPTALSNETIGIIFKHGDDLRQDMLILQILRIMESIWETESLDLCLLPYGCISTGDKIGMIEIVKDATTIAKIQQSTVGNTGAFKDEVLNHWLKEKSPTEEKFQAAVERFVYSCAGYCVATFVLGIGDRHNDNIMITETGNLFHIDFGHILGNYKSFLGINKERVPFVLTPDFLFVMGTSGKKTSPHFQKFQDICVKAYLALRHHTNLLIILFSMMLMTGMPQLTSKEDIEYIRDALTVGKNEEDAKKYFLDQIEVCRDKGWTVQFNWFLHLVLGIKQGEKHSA

As for `CC(NC(=O)c1c(N)nn2cccnc12)c1cc(C2CC2)c2cncn2c1-c1ccccc1` (racemic) [Example 117, 2-Amino-N-[1-(8-cyclopropyl-5-phenylimidazo[1,5-a]pyridin-6-yl)ethyl]pyrazolo[1,5-a]pyrimidine-3-carboxamide trifluoroacetate salt], the IC50 in experiment [1] (2 μM ATP, 20 μM PIP2) was under 2000 nM; in experiment [2], under 500 nM.

Turning to `CNC(=O)c1ccc(-c2c(C(C)NC(=O)c3c(N)nn4cccnc34)cc(Cl)c3cncn23)cn1` (racemic) [Example 132, 2-Amino-N-[1-{8-chloro-5-{6-[(methylamino)carbonyl]pyridin-3-yl}imidazo [1,5-a]pyridin-6-yl)ethyl]pyrazolo[1,5-a]pyrimidine-3-carboxamide trifluoroacetate salt], the half-inhibitory concentration (IC50) in experiment [1] (2 μM ATP, 20 μM PIP2) was under 500 nM; in experiment [2] it was under 500 nM. On to `CC(NC(=O)c1c(N)nn2cccnc12)c1cc(Cl)c2c(C(F)(F)F)ncn2c1N1CCNS(=O)(=O)CC1` (racemic) [Example 159, 2-Amino-N-{1-[8-chloro-5-(1,1-dioxido-1,2,5-thiadiazepan-5-yl)-1-(trifluoromethyl)imidazo[1,5-a]pyridin-6-yl]ethyl}pyrazolo[1,5-a]pyrimidine-3-carboxamide trifluoroacetate salt], for which the concentration for half-maximal inhibition (IC50) in experiment [1] (2 μM ATP, 20 μM PIP2) is under 2000 nM; in experiment [2] it was under 500 nM. The corresponding values for `CC(NC(=O)c1c(N)nn2cccnc12)c1cc(Cl)c2cncn2c1C1CCCCC1` (racemic) [Example 183, 2-Amino-N-[1-(8-chloro-5-cyclohexylimidazo[1,5-a]pyridin-6-yl)ethyl]pyrazolo[1,5-a]pyrimidine-3-carboxamide trifluoroacetate salt] are under 2000 nM and under 500 nM. The corresponding values for `Cc1nnc2c(Cl)cc(C(C)NC(=O)c3c(N)nn4cccnc34)c(-c3ccccc3)n12` (racemic) [Example 184, 2-Amino-N-[1-(8-chloro-3-methyl-5-phenyl[1,2,4]triazolo[4,3-a]pyridin-6-yl)ethyl]pyrazolo[1,5-a]pyrimidine-3-carboxamide trifluoroacetate salt] are at least 2000 nM and under 500 nM. Consider `CC(NC(=O)c1c(N)nn2cccnc12)c1cc(Cl)c2nncn2c1-c1ccccc1` (racemic) [Example 185, 2-Amino-N-[1-(8-chloro-5-phenyl[1,2,4]triazolo[4,3-a]pyridin-6-yl)ethyl]pyrazolo[1,5-a]pyrimidine-3-carboxamide trifluoroacetate salt], for which the IC50 is at least 2000 nM in experiment [1] (2 μM ATP, 20 μM PIP2) and under 500 nM in experiment [2].

Turning to `CCOc1c(C(C)NC(=O)c2c(N)nn3cccnc23)cc(Cl)c2cn[nH]c12` (single isomer, unassigned) [Example 3b, 2-amino-N-[1-(4-chloro-7-ethoxy-1H-indazol-6-yl)ethyl]pyrazolo[1,5-a]pyrimidine-3-carboxamide trifluoroacetate], the IC50 is at least 2000 nM in experiment [1] (2 μM ATP, 20 μM PIP2) and over 2000 nM in experiment [2]. For the compound `CCOc1c(C(C)n2nc(C)c3c(N)ncnc32)cc(Cl)c(F)c1C1CNC(=O)C1` (single isomer, unassigned) [Example 32a, 4-{3-[1-(4-amino-3-methyl-1H-pyrazolo[3,4-d]pyrimidin-1-yl)ethyl]-5-chloro-2-ethoxy-6-fluorophenyl}pyrrolidin-2-one, reference compound], the IC50 in experiment [1] (Table B, Assay C) fell in the range of 50 to 200 nM.

Turning to `CCOc1c(C(C)n2nc(C)c3c(N)ncnc32)cc(Cl)c(F)c1C1CNC(=O)C1` (single isomer, unassigned) [Example 32b, 4-{3-[1-(4-amino-3-methyl-1H-pyrazolo[3,4-d]pyrimidin-1-yl)ethyl]-5-chloro-2-ethoxy-6-fluorophenyl}pyrrolidin-2-one, reference compound], the half-maximal inhibitory concentration (IC50) in experiment [1] (Table B, Assay C) is under 50 nM.

Turning to `CCOc1c(C(C)n2nc(C)c3c(N)ncnc32)cc(Cl)c(F)c1C1CNC(=O)C1` (single isomer, unassigned) [Example 32c, 4-{3-[1-(4-amino-3-methyl-1H-pyrazolo[3,4-d]pyrimidin-1-yl)ethyl]-5-chloro-2-ethoxy-6-fluorophenyl}pyrrolidin-2-one, reference compound], the IC50 in experiment [1] (Table B, Assay C) is under 50 nM. As for `CCOc1c(C(C)n2nc(C)c3c(N)ncnc32)cc(Cl)c(F)c1C1CNC(=O)C1` (single isomer, unassigned) [Example 32d, 4-{3-[1-(4-amino-3-methyl-1H-pyrazolo[3,4-d]pyrimidin-1-yl)ethyl]-5-chloro-2-ethoxy-6-fluorophenyl}pyrrolidin-2-one, reference compound], the concentration for half-maximal inhibition (IC50) in experiment [1] (Table B, Assay C) fell in the range of 50 to 200 nM.

Turning to `CCOc1c(C(C)NC(=O)c2c(N)nn3cccnc23)cc(Cl)c2cn(CCOC)nc12` (stereo not drawn) [Example 5a, 2-amino-N-(1-(4-chloro-7-ethoxy-2-(2-methoxyethyl)-2H-indazol-6-yl)ethyl)pyrazolo[1,5-a]pyrimidine-3-carboxamide trifluoroacetate], the IC50 is under 2000 nM in experiment [1] (2 μM ATP, 20 μM PIP2) and under 2000 nM in experiment [2]. Regarding `CCOc1c(C(C)NC(=O)c2c(N)nn3cccnc23)cc(Cl)c2cn(CCO)nc12` (stereo not drawn) [Example 6a, 2-amino-N-(1-(4-chloro-7-ethoxy-2-(2-hydroxyethyl)-2H-indazol-6-yl)ethyl)pyrazolo[1,5-a]pyrimidine-3-carboxamide trifluoroacetate], the IC50 is under 2000 nM in experiment [1] (2 μM ATP, 20 μM PIP2) and under 2000 nM in experiment [2]. As for `CCOc1c(C(C)NC(=O)c2c(N)nn3cccnc23)cc(Cl)c2cn(CC#N)nc12` (stereo not drawn) [Example 7a, 2-amino-N-(1-(4-chloro-2-(cyanomethyl)-7-ethoxy-2H-indazol-6-yl)ethyl)pyrazolo[1,5-a]pyrimidine-3-carboxamide trifluoroacetate], the 50% inhibitory concentration (IC50) in experiment [1] (2 μM ATP, 20 μM PIP2) was at least 2000 nM; in experiment [2], over 2000 nM. As for `CCOc1c(C(C)NC(=O)c2c(N)nn3cccnc23)cc(Cl)c2cn(Cc3ccccc3)nc12` (stereo not drawn) [Example 8a, 2-amino-N-(1-(2-benzyl-4-chloro-7-ethoxy-2H-indazol-6-yl)ethyl)pyrazolo[1,5-a]pyrimidine-3-carboxamide trifluoroacetate], the concentration for half-maximal inhibition (IC50) was at least 2000 nM in experiment [1] (2 μM ATP, 20 μM PIP2) and under 2000 nM in experiment [2]. `CCOc1c(C(C)NC(=O)c2c(N)nn3cccnc23)cc(Cl)c2cn(CC(C)C)nc12` (stereo not drawn) [Example 9a, 2-amino-N-(1-(4-chloro-7-ethoxy-2-isobutyl-2H-indazol-6-yl)ethyl)pyrazolo[1,5-a]pyrimidine-3-carboxamide trifluoroacetate]: the 50% inhibitory concentration (IC50) in experiment [1] (2 μM ATP, 20 μM PIP2) is at least 2000 nM; in experiment [2] it was under 2000 nM. In the same order, the values of `CCOc1c(C(C)NC(=O)c2c(N)nn3cccnc23)cc(Cl)c2cn(C3CCC3)nc12` (stereo not drawn) [Example 10a, 2-amino-N-(1-(4-chloro-2-cyclobutyl-7-ethoxy-2H-indazol-6-yl)ethyl)pyrazolo[1,5-a]pyrimidine-3-carboxamide trifluoroacetate] are at least 2000 nM and under 2000 nM. With `CCOc1c(C(C)NC(=O)c2c(N)nn3cccnc23)cc(Cl)c2cn(C(C)C)nc12` (stereo not drawn) [Example 11a, 2-amino-N-(1-(4-chloro-7-ethoxy-2-isopropyl-2H-indazol-6-yl)ethyl)pyrazolo[1,5-a]pyrimidine-3-carboxamide trifluoroacetate], the IC50 is at least 2000 nM in experiment [1] (2 μM ATP, 20 μM PIP2) and under 2000 nM in experiment [2]. For `COc1c(C(C)n2nc(C)c3c(N)ncnc32)cc(Cl)c(C#N)c1C1CN(C[C@H](C)O)C1` (stereo partly drawn) [Example 29, 4-[1-(4-amino-3-methyl-1H-pyrazolo[3,4-d]pyrimidin-1-yl)ethyl]-6-chloro-2-{1-[(2S)-2-hydroxypropyl]azetidin-3-yl}-3-methoxybenzonitrile], in experiment [1] (Table B, Assay C), the 50% inhibitory concentration (IC50) was under 50 nM. As to `COc1c(C(C)n2nc(C)c3c(N)ncnc32)cc(Cl)c(C#N)c1C1CN(CCO)C1` (stereo not drawn) [Example 30, 4-[1-(4-amino-3-methyl-1H-pyrazolo[3,4-d]pyrimidin-1-yl)ethyl]-6-chloro-2-[1-(2-hydroxyethyl)azetidin-3-yl]-3-methoxybenzonitrile], the IC50 in experiment [1] (Table B, Assay C) is under 50 nM. The same measure, in the same setting: the value for `CCOc1c(C(C)n2nc(C)c3c(N)ncnc32)cc(C)c(C#N)c1-c1ccc(C(=O)N(C)C)nc1` (stereo not drawn) [Example 31, 5-{3-[1-(4-amino-3-methyl-1H-pyrazolo[3,4-d]pyrimidin-1-yl)ethyl]-6-cyano-2-ethoxy-5-methylphenyl}-N,N-dimethylpyridine-2-carboxamide, reference compound] was under 50 nM. For the compound `CCOc1c(C(C)NC(=O)c2c(N)nc3ccc(C)nn23)cc(Cl)c2cn[nH]c12` (stereo not drawn) [Example 46, 2-Amino-N-(1-(4-chloro-7-ethoxy-1H-indazol-6-yl)ethyl)-6-methylimidazo[1,2-b]pyridazine-3-carboxamide], the IC50 in experiment [1] (2 μM ATP, 20 μM PIP2) is under 500 nM; in experiment [2] it was under 500 nM. As for `CCOc1c(C(C)NC(=O)c2c(N)nc3ccc(N4CCCCC4)nn23)cc(Cl)c2cn[nH]c12` (stereo not drawn) [Example 47, 2-Amino-N-(1-(4-chloro-7-ethoxy-1H-indazol-6-yl)ethyl)-6-(piperidin-1-yl)imidazo[1,2-b]pyridazine-3-carboxamide], the IC50 in experiment [1] (2 μM ATP, 20 μM PIP2) was under 500 nM; in experiment [2], under 500 nM. For `CCc1n[nH]c2c(-c3ccccc3)c(C(C)NC(=O)c3c(N)nn4cccnc34)cc(Cl)c12` (stereo not drawn) [Example 51, 2-Amino-N-(1-(4-chloro-3-ethyl-7-phenyl-1H-indazol-6-yl)ethyl)pyrazolo[1,5-a]pyrimidine-3-carboxamide trifluoroacetate], the half-inhibitory concentration (IC50) was at least 2000 nM in experiment [1] (2 μM ATP, 20 μM PIP2) and under 2000 nM in experiment [2]. As for `CC(NC(=O)c1c(N)nn2cccnc12)c1cc(Cl)c2cn[nH]c2c1OCCCN` (stereo not drawn) [Example 64, 2-Amino-N-{1-[7-(3-aminopropoxy)-4-chloro-1H-indazol-6-yl]ethyl}pyrazolo[1,5-a]pyrimidine-3-carboxamide bis(trifluoroacetate)], the IC50 in experiment [1] (2 μM ATP, 20 μM PIP2) was under 500 nM; in experiment [2], under 500 nM. As for `CC(NC(=O)c1c(N)nn2cccnc12)c1cc(Cl)c2cncn2c1N1CCCC(F)C1` (stereo not drawn) [Example 73C-73D, 2-Amino-N-{1-[8-chloro-5-(3-fluoropiperidin-1-yl)imidazo[1,5-a]pyridin-6-yl]ethyl}pyrazolo[1,5-a]pyrimidine-3-carboxamide], the half-inhibitory concentration (IC50) in experiment [1] (2 μM ATP, 20 μM PIP2) is at least 2000 nM; in experiment [2], under 500 nM.
